Test results as given in BindingDB's records for doi:10.1016/j.bmcl.2009.03.149 (Gsk, 2009).

What was measured:
Test in all cases: Enzyme Inhibition Assay
Cathepsin D = Cathepsin D (Homo sapiens, UniProt P07339)
Beta-secretase 1 = Beta-secretase 1 (Homo sapiens, UniProt P56817); conditions: pH 4.5; 22 °C
Beta-secretase 2 = molecular target: T1, Beta-secretase 2 (Homo sapiens, UniProt Q9Y5Z0)
T1 sequence (Q9Y5Z0 whole entry): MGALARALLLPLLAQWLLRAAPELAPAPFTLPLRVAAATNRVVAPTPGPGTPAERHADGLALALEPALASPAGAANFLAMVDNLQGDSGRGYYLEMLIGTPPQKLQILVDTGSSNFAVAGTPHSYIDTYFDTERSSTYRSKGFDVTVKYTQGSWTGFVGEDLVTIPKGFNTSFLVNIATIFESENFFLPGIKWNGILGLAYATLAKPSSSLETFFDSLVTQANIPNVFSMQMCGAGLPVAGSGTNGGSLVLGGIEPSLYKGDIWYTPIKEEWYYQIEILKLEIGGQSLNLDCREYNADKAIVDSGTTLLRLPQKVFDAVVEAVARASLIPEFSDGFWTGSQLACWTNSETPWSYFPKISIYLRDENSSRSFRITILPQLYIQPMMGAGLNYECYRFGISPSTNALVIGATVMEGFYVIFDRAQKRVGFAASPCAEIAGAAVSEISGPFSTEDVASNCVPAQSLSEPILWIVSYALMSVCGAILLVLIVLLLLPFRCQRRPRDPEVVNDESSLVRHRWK

Cathepsin D, sequence (P07339 65-162 limits assumed): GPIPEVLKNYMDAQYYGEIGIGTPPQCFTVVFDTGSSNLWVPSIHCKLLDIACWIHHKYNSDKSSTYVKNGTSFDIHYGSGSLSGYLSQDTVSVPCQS
Cathepsin D, sequence (P07339 169-412 limits assumed): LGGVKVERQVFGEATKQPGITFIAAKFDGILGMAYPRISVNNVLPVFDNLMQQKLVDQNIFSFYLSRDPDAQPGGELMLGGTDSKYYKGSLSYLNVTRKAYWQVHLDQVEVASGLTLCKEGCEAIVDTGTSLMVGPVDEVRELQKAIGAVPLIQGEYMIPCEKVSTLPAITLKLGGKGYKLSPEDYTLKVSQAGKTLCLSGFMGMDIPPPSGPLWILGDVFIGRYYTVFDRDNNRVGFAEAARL
Beta-secretase 1, sequence (P56817 whole entry): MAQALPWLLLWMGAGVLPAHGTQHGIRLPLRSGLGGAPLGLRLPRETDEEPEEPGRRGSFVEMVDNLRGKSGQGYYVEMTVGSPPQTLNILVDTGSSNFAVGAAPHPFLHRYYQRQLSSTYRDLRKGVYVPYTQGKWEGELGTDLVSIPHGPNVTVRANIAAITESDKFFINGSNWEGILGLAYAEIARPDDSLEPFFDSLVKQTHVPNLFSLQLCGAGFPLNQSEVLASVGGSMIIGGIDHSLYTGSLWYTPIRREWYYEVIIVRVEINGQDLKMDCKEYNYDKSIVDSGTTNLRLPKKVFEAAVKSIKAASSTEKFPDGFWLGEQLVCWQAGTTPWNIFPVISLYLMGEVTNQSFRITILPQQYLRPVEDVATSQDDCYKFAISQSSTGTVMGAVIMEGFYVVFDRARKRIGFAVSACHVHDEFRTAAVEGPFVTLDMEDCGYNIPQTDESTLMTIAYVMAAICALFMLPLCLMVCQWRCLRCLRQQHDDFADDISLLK

IC50 (Cathepsin D; pH 4.5, 22 °C) [nM] | IC50 (Beta-secretase 1) [nM] | IC50 (Beta-secretase 2) [nM] | IC50 (Cathepsin D) [nM] | SMILES
130 | 86 | 450 | – | CCc1cn2c3c(cc(C(=O)N[C@@H](Cc4ccccc4)[C@H](O)CNC4CCOCC4)cc13)OS(=O)(=O)CC2 [sulfone tricyclic analogue, 19]
– | 15 | 490 | 6610 | CCc1cn2c3c(cc(C(=O)N[C@@H](Cc4ccccc4)[C@H](O)CNC4CCOCC4)cc13)N(C)S(=O)(=O)CC2 [BMCL193674 Compound 6]
